Experimental data from US10662210B2, “Compositions and methods comprising osmium for the treatment of cancers” (Massachusetts Institute of Technology, priority 2014, dated 2020).

Legend:
A2780 cells = test: Dual Annexin V staining/PI flow cytometry assay; type: cell-based, human; settings: 72 hours
Protocol: To have a more complete understanding of the cellular response induced by 2 or 4, their mode of cell killing was evaluated. Many clinically approved cancer drugs exert their cytotoxic effects through apoptosis, and so the features related to this pathway were monitored. Apoptotic cells underwent morphological changes that lead to cell membrane disorientation. […] Cells can undergo other forms of cell death such as necrosis and autophagy. To probe these pathways, cytotoxicity assays were carried out in the presence of […], chloroquine, and IM-54, respectively. Because both chloroquine and IM-54 had little effect on the potency of either of the osmium complexes, necrosis and autophagy were ruled out as possible death pathways. […] On the other hand, 4 initiated ER stress, culminating in p53 independent, caspase directed apoptosis (FIG. 4).
In order to monitor the cell cycle, flow cytometry studies were carried out. […] DNA content was measured on a FACSCalibur-HTS flow cytometer (BD Biosciences) using laser excitation at 488 nm and 20,000 events per sample were acquired. Cell cycle profiles were analysed using the ModFit software. […] The samples were kept on ice prior to being read on the FACSCalibur-HTS flow cytometer (BD Biosciences) and 20,000 events per sample were acquired. Cell populations were analysed using the FlowJo software (Tree Star).

[1] = tested on: Eμ-Mycp19arf−/− lymphoma cells; test: RNAi signatures, GFP competition assay; settings: for shChk2 log 2(RI) value / shp53 log 2(RI) value: LD80-90 concentration; for RNAi signature classification against reference set: probabilistic K-nearest neighbors
From the text: This RNAi-based methodology relied on a fluorescence competition assay involving lymphoma cells that were partially infected with one of eight distinct short hairpin RNAs (shRNAs). shRNA-bearing cells will either enrich or deplete relative to the uninfected population based on drug survival advantage or disadvantage conferred by a given shRNA. […] The signature of a novel compound was compared to those of a reference set of drugs using a probabilistic K-nearest neighbors algorithm to determine whether it belonged to a class in the reference set or a new category that was not represented in the reference set.
Compounds were dosed to achieve an LD80-90 in Eμ-Myc^p19arf−/− cells by propidium iodide exclusion as determined by FACS after a 48 h incubation. GFP enrichment/depletion was then determined by FACS at 72 h. […] All FACS was conducted using a FACScan (BD Biosciences).
Eμ-Myc^p19arf−/− lymphoma or p185+ BCR-Abl^p19arf−/− leukemia cells were infected with GFP-tagged shRNAs such that 15-25% of the population were GFP positive. An eighth of a million cells in 250 μL B-cell media (BCM) were then seeded into 24-well plates. For wells that would remain untreated as a control, only 1/16th of a million cells were seeded. Next, 250 μL of media containing the active agent was added to the cells. After 24 h, 300 μL of cells from untreated wells are removed and replaced by 300 μL fresh BCM. All wells then received 500 μL BCM before being placed by in the incubator for another 24 h. At 48 h, cells transduced with the control vector, MLS, were checked for viability via FACS on a FACScan (BD Biosciences) using propidium iodide as a live/dead marker. Untreated wells then had 700 μL of cells removed and replaced with 700 μL fresh media followed by a further 1 mL of fresh media. […] Finally, at 72 h, all wells for which an LD80-90 was achieved, as well as the untreated samples, were analyzed via FACS to determine GFP % enrichment.

[2] = tested on: phosphorylated H2AX (γH2AX), CHK2, CHK1, p53 (Ser15) in A2780 cells; test: Immunoblotting analysis, DNA damage pathway; type: cell-based, human; settings: 72 hours
Protocol: To gain further insight into the modes of action of 2 and 4, immunoblotting analyses were conducted to monitor changes in expression of biomarkers related to the DNA damage pathway (FIG. 8). […] This difference could be related to steric effects imposed by the phenyl groups in 4.
A2780 cells (5×10^5 cells) were incubated with the osmium complexes (concentrations, μM) for 72 h at 37° C. Cells were washed with PBS, scraped into SDS-PAGE loading buffer (64 mM Tris-HCl (pH6.8)/9.6% glycerol/2% SDS/5% β-mercaptoethanol/0.01% Bromophenol Blue), and incubated at 95° C. for 10 min. Whole cell lysates were resolved by 4-20% sodium dodecylsulphate polyacylamide gel electrophoresis (SDS-PAGE; 200 V for 25 min) followed by electro transfer to polyvinylidene difluoride membrane, PVDF (350 mA for 1 h). Membranes were blocked in 5% (w/v) non-fat milk in PBST (PBS/0.1% Tween 20) and incubated with the appropriate primary antibodies (Cell Signalling Technology and Santa Cruz). After incubation with horseradish peroxidase-conjugated secondary antibodies (Cell Signalling Technology), immune complexes were detected with the ECL detection reagent (BioRad) and analyzed using an Alpha Innotech ChemiImager™ 5500 fitted with a chemiluminescence filter.

[3] = Water-octanol partition coefficient (log P), shake-flask method with GF-AAS; type: physicochemical; settings: room temperature, 50 μM
Protocol: Those of ordinary skill in the art would be knowledgeable of methods of determining the water-octanol partition coefficient of compounds. For example, the log P of a compound may be obtained using the shake-flask method and graphite furnace atomic absorption spectroscopy (GF-AAS). Briefly, in the shake-flask method, octanol is pre-saturated with water by overnight incubation with shaking of a biphasic mixture of the two at room temperature. A portion of 0.5 mL water containing 50 μM of the given compound is incubated with the pre-saturated octanol (0.5 mL) in a 1.5 mL tube. The tube is shaken at room temperature for 3 hours. The two phases are separated by centrifugation and the osmium content (concentration) in each phase is determined by GFAAS. The log P is then calculated using the formula below: log P=log 10[(concentration of osmium in the octanol layer)/(concentration of osmium in the water layer)].
The log P values were obtained using the shake-flask method and graphite furnace atomic absorption spectroscopy (GF-AAS). Octanol used in this experiment was pre-saturated with water by overnight incubation with shaking of a biphasic mixture of the two at room temperature. A portion of 0.5 mL water containing 50 μM of the given compound was incubated with the pre-saturated octanol (0.5 mL) in a 1.5 mL tube. The tube was shaken at room temperature for 3 h. The two phases were separated by centrifugation and the osmium content (concentration) in each phase was determined by GFAAS. All the experiments were carried out in triplicate. The log P was then calculated using the formula below: Log P=log 10[(conc. of osmium in the octanol layer)/(conc. of osmium in the water layer)].

SMILES | occurrence of apoptosis (Annexin V/PI) (A2780 cells) | shChk2 log 2(RI) value [1] | shp53 log 2(RI) value [1] | RNAi signature classification against reference set [1] | expression of DNA damage pathway biomarkers [2] | log P (water-octanol coefficient) [3]
[N]#[Os]1([Cl])([Cl])([Cl])[N]2C=CC(c3ccccc3)=c3ccc4c(c32)[N]1C=CC=4c1ccccc1 [Complex 4, OsN(4,7-diphenyl-1,10-phenanthroline)Cl3] | induced large populations of cells to undergo early and late stage apoptosis | 0.73 | 1.32 | represented novel mechanisms of drug action | little signs of DNA damage | 1.84
[N]#[Os]1([Cl])([Cl])([Cl])[N]2C=CC=c3ccc4c(c32)[N]1C=CC=4 [Complex 2, OsN(1,10-phenanthroline)Cl3] | induced large populations of cells to undergo early and late stage apoptosis | 2.6 | 2.7 | represented novel mechanisms of drug action | marked increase in expression of the phosphorylated forms of H2AX (γH2AX), CHK2, CHK1, and p53 (Ser15) | 1.26
